In article PMC12136031 (Science Advances, 2025):
Where two headings read alike, the source gives them in different places.

Assays:
DCAF7-TFEB interaction = target: T1, DCAF7-TFEB interaction (Homo sapiens, UniProt P61962); experiment: Proximity ligation assay of TFEB and DCAF7 in BEAS-2B cells; type: cell-based
T1 construct: endogenous in cells; host or cells: BEAS-2B

[1] = target: DCAF7 / phosphorylated TFEB peptide (Ser138, Ser142) (Homo sapiens, UniProt P61962); experiment: TFEB peptide binding assay with recombinant DCAF7; details: DCAF7 preincubated with compound
ADORA2A = target: T2, ADORA2A (Homo sapiens, UniProt P29274); experiment: Safety47 Calcium Flux ADORA2A; type: cell-based; details: for Emax: read-out: Max Response; for EC50: read-out: RC50 (EC50); for IC50: read-out: RC50 (IC50)
T2 construct: purchased Eurofins Panlab Safety47 Safety Scan

ADRA1A = target: T3, ADRA1A (Homo sapiens, UniProt P35348); experiment: Safety47 Calcium Flux ADRA1A; type: cell-based; details: for Emax: read-out: Max Response; for EC50: read-out: RC50 (EC50); for IC50: read-out: RC50 (IC50)
T3 construct: purchased Eurofins Panlab Safety47 Safety Scan
T3 sequence (P35348 1-466): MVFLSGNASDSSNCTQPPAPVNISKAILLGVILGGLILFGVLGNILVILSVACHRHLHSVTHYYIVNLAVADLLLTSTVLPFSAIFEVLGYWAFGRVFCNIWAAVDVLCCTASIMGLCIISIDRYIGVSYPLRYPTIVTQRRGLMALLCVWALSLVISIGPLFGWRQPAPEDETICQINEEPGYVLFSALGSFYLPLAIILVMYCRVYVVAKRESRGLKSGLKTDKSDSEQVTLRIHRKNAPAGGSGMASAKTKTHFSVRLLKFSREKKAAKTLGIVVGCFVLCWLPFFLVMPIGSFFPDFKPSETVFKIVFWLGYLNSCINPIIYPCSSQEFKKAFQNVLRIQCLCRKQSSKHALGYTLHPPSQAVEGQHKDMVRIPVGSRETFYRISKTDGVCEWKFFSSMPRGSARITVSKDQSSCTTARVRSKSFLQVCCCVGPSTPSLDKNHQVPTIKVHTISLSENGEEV

CHRM1 = target: T4, CHRM1 (Homo sapiens, UniProt P11229); experiment: Safety47 Calcium Flux CHRM1; type: cell-based; details: for Emax: read-out: Max Response; for EC50: read-out: RC50 (EC50); for IC50: read-out: RC50 (IC50)
T4 construct: purchased Eurofins Panlab Safety47 Safety Scan
T4 sequence (P11229 1-460): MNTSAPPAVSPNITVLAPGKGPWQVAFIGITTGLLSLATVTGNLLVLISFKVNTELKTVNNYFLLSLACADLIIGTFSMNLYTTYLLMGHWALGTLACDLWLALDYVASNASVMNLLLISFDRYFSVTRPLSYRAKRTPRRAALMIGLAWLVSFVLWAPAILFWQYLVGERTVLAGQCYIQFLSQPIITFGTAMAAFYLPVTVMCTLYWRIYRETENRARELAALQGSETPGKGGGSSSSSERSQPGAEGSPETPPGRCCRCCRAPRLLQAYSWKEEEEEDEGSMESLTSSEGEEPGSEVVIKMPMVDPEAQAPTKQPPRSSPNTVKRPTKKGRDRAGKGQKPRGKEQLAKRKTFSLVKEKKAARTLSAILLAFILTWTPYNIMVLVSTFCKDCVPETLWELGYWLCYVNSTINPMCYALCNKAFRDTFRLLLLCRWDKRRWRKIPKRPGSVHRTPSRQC

CHRM3 = target: T5, CHRM3 (Homo sapiens, UniProt P20309); experiment: Safety47 Calcium Flux CHRM3; type: cell-based; details: for Emax: read-out: Max Response; for EC50: read-out: RC50 (EC50); for IC50: read-out: RC50 (IC50)
T5 construct: purchased Eurofins Panlab Safety47 Safety Scan

ADRB2 = target: T6, ADRB2 (Homo sapiens, UniProt P07550); experiment: Safety47 cAMP ADRB2; type: cell-based; details: for Emax: read-out: Max Response; for EC50: read-out: RC50 (EC50); for IC50: read-out: RC50 (IC50)
T6 construct: purchased Eurofins Panlab Safety47 Safety Scan

HRH2 = target: T7, HRH2 (Homo sapiens, UniProt P25021); experiment: Safety47 cAMP HRH2; type: cell-based; details: for Emax: read-out: Max Response; for EC50: read-out: RC50 (EC50); for IC50: read-out: RC50 (IC50)
T7 construct: purchased Eurofins Panlab Safety47 Safety Scan

OPRD1 = target: T8, OPRD1 (Homo sapiens, UniProt P41143); experiment: Safety47 cAMP OPRD1; type: cell-based; details: for Emax: read-out: Max Response; for EC50: read-out: RC50 (EC50); for IC50: read-out: RC50 (IC50)
T8 construct: purchased Eurofins Panlab (Safety47 Safety Scan, contract panel)

AR = target: T9, AR (Homo sapiens, UniProt P10275); experiment: Safety47 NHR Nuclear Translocation AR; type: cell-based; details: for Emax: read-out: Max Response; for EC50: read-out: RC50 (EC50); for IC50: read-out: RC50 (IC50)
T9 construct: purchased Eurofins Panlab (Safety47 Safety Scan, contract panel)
T9 sequence (P10275 1-920): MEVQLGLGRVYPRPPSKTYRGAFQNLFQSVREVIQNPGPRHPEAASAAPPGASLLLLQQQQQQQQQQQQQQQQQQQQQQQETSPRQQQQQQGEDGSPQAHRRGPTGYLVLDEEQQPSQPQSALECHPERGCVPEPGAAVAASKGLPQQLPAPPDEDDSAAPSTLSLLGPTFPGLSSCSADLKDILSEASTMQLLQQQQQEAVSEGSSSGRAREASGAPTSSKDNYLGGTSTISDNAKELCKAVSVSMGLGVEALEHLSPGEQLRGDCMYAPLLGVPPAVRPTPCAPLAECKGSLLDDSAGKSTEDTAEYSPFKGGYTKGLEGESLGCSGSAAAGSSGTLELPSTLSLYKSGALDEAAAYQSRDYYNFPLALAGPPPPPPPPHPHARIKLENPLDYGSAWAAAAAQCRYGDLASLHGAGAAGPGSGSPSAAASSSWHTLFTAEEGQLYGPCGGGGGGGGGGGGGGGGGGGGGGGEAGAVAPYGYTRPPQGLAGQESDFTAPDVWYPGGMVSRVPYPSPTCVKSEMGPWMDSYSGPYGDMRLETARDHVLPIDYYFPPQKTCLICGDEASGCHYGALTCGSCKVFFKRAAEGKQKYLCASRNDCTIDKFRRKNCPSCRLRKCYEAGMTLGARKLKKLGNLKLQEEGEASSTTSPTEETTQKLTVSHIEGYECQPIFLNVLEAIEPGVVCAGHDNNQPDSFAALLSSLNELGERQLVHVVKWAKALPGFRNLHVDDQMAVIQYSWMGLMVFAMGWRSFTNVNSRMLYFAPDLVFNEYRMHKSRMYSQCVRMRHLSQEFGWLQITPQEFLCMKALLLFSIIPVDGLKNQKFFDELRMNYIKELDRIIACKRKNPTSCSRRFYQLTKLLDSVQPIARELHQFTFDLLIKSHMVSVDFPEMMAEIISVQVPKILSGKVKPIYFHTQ

COX1 = target: T10, COX1 (Homo sapiens, UniProt P23219); experiment: Safety47 Enzymatic COX1; type: biochemical; details: Inhibitor; for Emax: read-out: Max Response; for IC50: read-out: RC50 (IC50)
T10 construct: purchased Eurofins Panlab (Safety47 Safety Scan, contract panel)

PDE4D2 = target: T11, PDE4D2 (Homo sapiens, UniProt Q08499); experiment: Safety47 Enzymatic PDE4D2; type: biochemical; details: Inhibitor; for Emax: read-out: Max Response; for IC50: read-out: RC50 (IC50)
T11 construct: purchased Eurofins Panlab (Safety47 Safety Scan, contract panel)
T11 sequence (Q08499 303-809 limits assumed): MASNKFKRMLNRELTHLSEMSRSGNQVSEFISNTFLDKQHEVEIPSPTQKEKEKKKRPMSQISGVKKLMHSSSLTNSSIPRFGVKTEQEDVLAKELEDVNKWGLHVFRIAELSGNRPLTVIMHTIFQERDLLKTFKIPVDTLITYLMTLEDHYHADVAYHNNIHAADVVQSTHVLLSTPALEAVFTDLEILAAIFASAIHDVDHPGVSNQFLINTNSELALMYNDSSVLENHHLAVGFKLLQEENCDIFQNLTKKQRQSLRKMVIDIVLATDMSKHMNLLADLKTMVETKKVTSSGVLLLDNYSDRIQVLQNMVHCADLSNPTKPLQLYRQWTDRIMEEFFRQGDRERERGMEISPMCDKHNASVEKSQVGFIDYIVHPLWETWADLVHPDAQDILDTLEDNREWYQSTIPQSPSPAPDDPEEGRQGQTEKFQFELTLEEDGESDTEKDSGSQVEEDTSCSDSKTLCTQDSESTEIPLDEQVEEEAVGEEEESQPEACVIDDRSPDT

T7 sequence (P25021 whole entry): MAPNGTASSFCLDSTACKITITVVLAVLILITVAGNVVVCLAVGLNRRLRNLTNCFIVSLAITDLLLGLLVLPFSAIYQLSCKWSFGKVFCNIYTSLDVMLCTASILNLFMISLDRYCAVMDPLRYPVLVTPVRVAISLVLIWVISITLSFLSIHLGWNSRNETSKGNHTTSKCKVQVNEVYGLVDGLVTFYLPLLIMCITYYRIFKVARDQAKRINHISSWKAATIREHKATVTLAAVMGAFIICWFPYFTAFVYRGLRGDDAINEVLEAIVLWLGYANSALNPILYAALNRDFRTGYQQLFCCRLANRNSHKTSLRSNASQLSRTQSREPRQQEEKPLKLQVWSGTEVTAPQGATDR
T6 sequence (P07550 whole entry): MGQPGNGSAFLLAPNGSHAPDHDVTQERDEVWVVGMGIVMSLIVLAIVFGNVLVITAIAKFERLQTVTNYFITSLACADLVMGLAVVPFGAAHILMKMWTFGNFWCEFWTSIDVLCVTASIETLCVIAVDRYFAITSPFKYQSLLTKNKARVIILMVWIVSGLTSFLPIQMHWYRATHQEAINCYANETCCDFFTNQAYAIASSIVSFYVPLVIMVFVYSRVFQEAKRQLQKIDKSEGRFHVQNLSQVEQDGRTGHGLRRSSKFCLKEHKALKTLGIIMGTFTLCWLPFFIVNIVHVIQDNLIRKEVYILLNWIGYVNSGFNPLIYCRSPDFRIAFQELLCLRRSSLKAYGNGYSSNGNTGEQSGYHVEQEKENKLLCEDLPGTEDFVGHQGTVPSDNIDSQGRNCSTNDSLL
T5 sequence (P20309 whole entry): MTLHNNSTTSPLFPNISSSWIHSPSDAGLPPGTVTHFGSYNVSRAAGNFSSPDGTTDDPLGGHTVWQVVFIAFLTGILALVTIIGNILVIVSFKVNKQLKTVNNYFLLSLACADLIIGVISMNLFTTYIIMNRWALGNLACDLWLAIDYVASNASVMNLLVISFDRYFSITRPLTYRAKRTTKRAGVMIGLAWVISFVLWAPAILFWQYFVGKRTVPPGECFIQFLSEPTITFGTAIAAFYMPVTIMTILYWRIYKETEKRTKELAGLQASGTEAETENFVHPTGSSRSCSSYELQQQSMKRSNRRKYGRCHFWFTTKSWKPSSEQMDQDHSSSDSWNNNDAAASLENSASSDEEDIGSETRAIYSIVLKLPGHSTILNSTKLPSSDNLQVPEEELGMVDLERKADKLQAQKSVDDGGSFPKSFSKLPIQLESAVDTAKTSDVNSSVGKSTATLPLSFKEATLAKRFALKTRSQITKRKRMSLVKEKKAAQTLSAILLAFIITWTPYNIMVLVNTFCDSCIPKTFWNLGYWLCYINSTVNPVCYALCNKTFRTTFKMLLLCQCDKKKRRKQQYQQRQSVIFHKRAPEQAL
T8 sequence (P41143 whole entry, species assumed): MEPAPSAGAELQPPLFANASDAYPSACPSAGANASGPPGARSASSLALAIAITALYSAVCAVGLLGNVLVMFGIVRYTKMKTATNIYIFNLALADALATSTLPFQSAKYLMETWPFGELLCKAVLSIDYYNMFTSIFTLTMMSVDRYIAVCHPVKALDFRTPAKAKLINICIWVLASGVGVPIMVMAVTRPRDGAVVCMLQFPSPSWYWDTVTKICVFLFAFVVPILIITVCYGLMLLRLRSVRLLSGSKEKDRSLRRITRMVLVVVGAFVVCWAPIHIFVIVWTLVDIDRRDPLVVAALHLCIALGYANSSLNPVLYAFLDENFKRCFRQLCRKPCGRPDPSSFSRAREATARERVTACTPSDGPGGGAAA
T10 sequence (P23219 24-599): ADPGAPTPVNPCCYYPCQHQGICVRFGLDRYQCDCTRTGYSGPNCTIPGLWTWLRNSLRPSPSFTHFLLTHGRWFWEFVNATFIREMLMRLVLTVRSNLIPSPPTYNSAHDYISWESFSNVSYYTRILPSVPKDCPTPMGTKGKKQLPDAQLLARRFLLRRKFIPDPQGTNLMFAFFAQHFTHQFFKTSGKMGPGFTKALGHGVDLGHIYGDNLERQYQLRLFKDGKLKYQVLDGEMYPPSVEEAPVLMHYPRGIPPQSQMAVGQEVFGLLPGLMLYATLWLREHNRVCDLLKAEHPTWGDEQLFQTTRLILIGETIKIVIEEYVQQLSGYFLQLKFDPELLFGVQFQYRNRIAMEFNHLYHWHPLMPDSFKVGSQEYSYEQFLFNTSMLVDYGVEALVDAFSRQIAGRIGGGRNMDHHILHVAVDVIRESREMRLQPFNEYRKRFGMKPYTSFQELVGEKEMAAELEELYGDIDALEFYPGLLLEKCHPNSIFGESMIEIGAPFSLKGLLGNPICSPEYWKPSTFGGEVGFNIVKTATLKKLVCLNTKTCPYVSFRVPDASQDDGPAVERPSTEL
T2 sequence (P29274 whole entry): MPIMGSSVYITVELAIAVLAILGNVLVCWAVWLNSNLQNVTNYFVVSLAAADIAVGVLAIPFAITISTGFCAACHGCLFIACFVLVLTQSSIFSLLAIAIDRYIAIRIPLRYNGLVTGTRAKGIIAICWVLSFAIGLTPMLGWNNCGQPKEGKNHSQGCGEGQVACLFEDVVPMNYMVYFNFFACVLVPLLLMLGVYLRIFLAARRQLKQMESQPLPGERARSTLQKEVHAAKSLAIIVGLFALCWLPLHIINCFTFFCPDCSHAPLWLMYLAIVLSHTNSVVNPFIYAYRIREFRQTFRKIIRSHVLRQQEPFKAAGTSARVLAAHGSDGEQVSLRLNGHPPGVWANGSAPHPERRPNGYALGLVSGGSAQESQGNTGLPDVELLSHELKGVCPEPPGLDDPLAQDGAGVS
Sequence of DCAF7 / phosphorylated TFEB peptide (Ser138, Ser142) (P61962 whole entry): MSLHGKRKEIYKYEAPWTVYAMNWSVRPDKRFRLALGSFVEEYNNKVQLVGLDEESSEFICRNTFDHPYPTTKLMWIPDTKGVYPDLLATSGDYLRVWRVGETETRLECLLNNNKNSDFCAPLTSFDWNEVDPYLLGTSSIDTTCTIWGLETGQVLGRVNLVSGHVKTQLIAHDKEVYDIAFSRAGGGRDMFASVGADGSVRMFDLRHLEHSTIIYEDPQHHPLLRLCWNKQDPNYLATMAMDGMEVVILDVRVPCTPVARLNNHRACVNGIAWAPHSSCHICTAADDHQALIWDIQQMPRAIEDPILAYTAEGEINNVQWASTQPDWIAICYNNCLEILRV
T1 sequence (P61962 whole entry): as above

Cl.Fc1cc(Nc2nc(-c3ccncc3)nc3ncccc23)cc2cc[nH]c12 [BC18813, N-(7-fluoro-1H-indol-5-yl)-2-pyridin-4-ylpyrido[2,3-d]pyrimidin-4-amine hydrochloride]
Nuclear protein-protein interaction between DCAF7 and TFEB (PLA) (DCAF7-TFEB interaction): largely reduced | In vitro peptide binding [1]: reduced | Emax (ADORA2A; Agonist): 1.05% | EC50 (ADORA2A; Agonist): > 10 µM | Emax (ADORA2A; Antagonist): 37.7% | IC50 (ADORA2A; Antagonist): > 10 µM | Emax (ADRA1A; Agonist): 5.5% | EC50 (ADRA1A; Agonist): > 10 µM | Emax (ADRA1A; Antagonist): 1.12% | IC50 (ADRA1A; Antagonist): > 10 µM | Emax (CHRM1; Agonist): 0% | EC50 (CHRM1; Agonist): > 10 µM | Emax (CHRM1; Antagonist): 15.3% | IC50 (CHRM1; Antagonist): > 10 µM | Emax (CHRM3; Agonist): 0.56% | EC50 (CHRM3; Agonist): > 10 µM | Emax (CHRM3; Antagonist): 16.6% | IC50 (CHRM3; Antagonist): > 10 µM | Emax (ADRB2; Agonist): 0% | EC50 (ADRB2; Agonist): > 10 µM | Emax (ADRB2; Antagonist): 41.9% | IC50 (ADRB2; Antagonist): > 10 µM | Emax (HRH2; Agonist): 0% | EC50 (HRH2; Agonist): > 10 µM | Emax (HRH2; Antagonist): 45.8% | IC50 (HRH2; Antagonist): > 10 µM | Emax (OPRD1; Agonist): 54.8% | EC50 (OPRD1; Agonist): > 10 µM | Emax (OPRD1; Antagonist): 0% | IC50 (OPRD1; Antagonist): > 10 µM | Emax (AR; Agonist): 0% | EC50 (AR; Agonist): > 10 µM | IC50 (AR; Antagonist): > 10 µM | Emax (COX1): 29.3% | IC50 (COX1): > 10 µM | Emax (PDE4D2): 44.4% | IC50 (PDE4D2): > 10 µM

Cl.c1ccc2c(Nc3ccc4[nH]ccc4c3)nc(-c3ccncc3)nc2c1 [BC18630, N-1H-indol-5-yl-2-pyridin-4-ylquinazolin-4-amine hydrochloride]
Nuclear protein-protein interaction between DCAF7 and TFEB (PLA) (DCAF7-TFEB interaction): largely reduced | In vitro peptide binding [1]: reduced | Emax (ADORA2A; Agonist): 3.09% | EC50 (ADORA2A; Agonist): > 10 µM | Emax (ADORA2A; Antagonist): 29.8% | IC50 (ADORA2A; Antagonist): > 10 µM | Emax (ADRA1A; Agonist): 0% | EC50 (ADRA1A; Agonist): > 10 µM | Emax (ADRA1A; Antagonist): 0% | IC50 (ADRA1A; Antagonist): > 10 µM | Emax (CHRM1; Agonist): 0% | EC50 (CHRM1; Agonist): > 10 µM | Emax (CHRM1; Antagonist): 7.76% | IC50 (CHRM1; Antagonist): > 10 µM | Emax (CHRM3; Agonist): 0% | EC50 (CHRM3; Agonist): > 10 µM | Emax (CHRM3; Antagonist): 13.7% | IC50 (CHRM3; Antagonist): > 10 µM | Emax (ADRB2; Agonist): 0% | EC50 (ADRB2; Agonist): > 10 µM | Emax (ADRB2; Antagonist): 37.3% | IC50 (ADRB2; Antagonist): > 10 µM | Emax (HRH2; Agonist): 0% | EC50 (HRH2; Agonist): > 10 µM | Curve Bottom (HRH2; Antagonist): -8.58 | Curve Top (HRH2; Antagonist): 73.68 | Hill (HRH2; Antagonist): 1 | Emax (HRH2; Antagonist): 43.2% | IC50 (HRH2; Antagonist): 6.01 µM | Emax (OPRD1; Agonist): 42.6% | EC50 (OPRD1; Agonist): > 10 µM | Emax (OPRD1; Antagonist): 9.94% | IC50 (OPRD1; Antagonist): > 10 µM | Emax (AR; Agonist): 0% | EC50 (AR; Agonist): > 10 µM | Emax (AR; Antagonist): 15.6% | IC50 (AR; Antagonist): > 10 µM | Emax (COX1): 21.8% | IC50 (COX1): > 10 µM | Emax (PDE4D2): 52.3% | IC50 (PDE4D2): > 10 µM
